IC50 data for 44 compounds are collected here from BindingDB's records for doi:10.1007/s10822-022-00478-x (Roche Innovation Center Basel, F. Hoffmann-La Roche Ltd., 2022).

Structures are written as SMILES.

This assay deals with cAMP and cAMP-inhibited cGMP 3',5'-cyclic phosphodiesterase 10A (Homo sapiens, UniProt Q9Y233). The experiment in a line: PDE10A assay. As to the method: Compounds were diluted in 20 mM HEPES/NaOH (pH 7.5), 10 mM MgCl2 and 0.05 mg/ml bovine serum albumin. A fixed amount of 2 ng/well human PDE10A enzyme was added and incubated at room temperature for 15 min under agitation. The reaction was started by the addition of the substrate cocktail [3H]cGMP (Perkin Elmer NET337001MC, S.A. 13.5 Ci/mmol) / cGMP at a final concentration of 50 nM and incubated for an additional 15 min. The reaction was stopped by the addition of 0.5 mg/well of Y-Si SPA beads. The plates were shaken for 1 h, followed by a brief centrifugation (170 g for 1 min). The radioactivity bound to the beads was estimated using a TopCount (Perkin-Elmer). For the determination of IC50 values, a four parameters logistics equation was used. pIC50 is defined as − log10(IC50).
A word on the IC50: it is the midpoint of a concentration-inhibition curve. Lower therefore signals inhibition by little substance. In turn, `CCN(C)C(=O)c1cnn(C)c1C(=O)N[C@@H]1CCn2cc(-c3cccc(OC)c3)nc2C1` [Roche-Dataset for PDE10A, Compound 136] registered an IC50 of 1730 nM.
In the case of `CNC(=O)c1cc(OC)ccc1NC(=O)c1nc(C2CC2)cnc1Nc1cncnc1` [US8703768, 225] it was 0.48 nM.
Take `COCCNC(=O)c1cc2[nH]c(-c3ccccc3)nc2cc1NC(=O)c1cc(Br)c[nH]c1=O` [Roche-Dataset for PDE10A, Compound 303]: the IC50 came to 7.17 nM.
`COCc1ccc(Nc2cncnc2)c(C(=O)Nc2cccc(-c3ccn(C)n3)c2)n1` [Roche-Dataset for PDE10A, Compound 790] returned a 50% inhibitory concentration (IC50) of 5.32 nM.
As for `O=C(NCc1ccc2nccnc2c1)c1nc(C2CC2)cnc1Nc1cncnc1` [Roche-Dataset for PDE10A, Compound 699], the midpoint of inhibition, the IC50, lay at 141 nM.
In the case of `CN1CCN(c2nc3cc(NC(=O)c4c(C(=O)N5CCC5)cnn4C)ccc3s2)CC1` [Roche-Dataset for PDE10A, Compound 546] it was 392 nM; in that of `COc1c(Cl)ccc2nc(CCc3nc(-c4ccccc4)cn3C)[nH]c(=O)c12` [Roche-Dataset for PDE10A, Compound 123], 33 nM.
For `Cc1cc(C)n2nc(/C=C/c3nc(N(C)C)nn3C)nc2n1` [Roche-Dataset for PDE10A, Compound 1144], half-maximal inhibition (IC50) was put at 924 nM.
In the case of `O=C(Nc1cc(-c2cccc(Cl)n2)nn1CCO)c1nc(C2CC2)ccc1Nc1cncnc1` [US8470820, 24] it was 1.41 nM; in that of `Cc1ncc(C)n2nc(CCc3nc(N4CCNCC4)nn3C)nc12` [Roche-Dataset for PDE10A, Compound 515], 767 nM; in that of `O=C(Nc1ccn(CCO)n1)c1nc(C2CC2)ccc1Nc1cncnc1` [Roche-Dataset for PDE10A, Compound 597], 50 nM.
For `Cn1ncc(C(=O)N2CCOCC2)c1C(=O)N[C@@H]1CCn2cc(-c3ccc(F)cc3)nc2C1` [Roche-Dataset for PDE10A, Compound 346], inhibition was half-maximal at 4340 nM (IC50). This IC50 is about 87-fold higher than that of the compound before.
`CN(C)c1nc(/C=C/c2cccc(Br)n2)nc2ccc(Cl)cc12` [Roche-Dataset for PDE10A, Compound 574] registered an IC50 of 281 nM.
`O=C(Nc1ccn2nc(-c3ccccc3)nc2c1)c1onc2ccc(Br)cc12` [Roche-Dataset for PDE10A, Compound 592] displayed an IC50 of 10 nM.
Next, `Cc1ncc(C)n2nc(CCc3nc(C(=O)N(C)C)cn3C)nc12` [Roche-Dataset for PDE10A, Compound 609]: 1590 nM; `CCOC(=O)c1cc(NC(=O)c2c(C(=O)N3CCC3)cnn2C)nn1C` [Roche-Dataset for PDE10A, Compound 959]: 1340 nM; `O=C(Nc1ccn(S(=O)(=O)C(F)(F)F)n1)c1nc(C2CC2)ccc1Nc1cncnc1` [Roche-Dataset for PDE10A, Compound 635]: 18 nM.
The compound `Cc1nc2ccccc2nc1OCc1csc(N2CCCC2)n1` [Roche-Dataset for PDE10A, Compound 1025] showed a concentration for half-maximal inhibition (IC50) of 65 nM.
Consider `CN(C)c1nc2cc(NC(=O)c3c(C(=O)O)cnn3C)ccn2n1` [Roche-Dataset for PDE10A, Compound 768], for which the IC50 came to 976 nM.
Next, `Cn1ncc(C(=O)NC2COC2)c1C(=O)N[C@@H]1CCn2cc(-c3ccccc3)nc2C1` [Roche-Dataset for PDE10A, Compound 302]: 181 nM; `Cn1ncc(C(=O)O)c1C(=O)Nc1ccc2cc(-c3ccccc3)nn2c1` [Roche-Dataset for PDE10A, Compound 377]: 19 nM.
On to `COCc1cnn(C)c1C(=O)Nc1ccn2nc(-c3ccccc3)nc2c1` [Roche-Dataset for PDE10A, Compound 239], for which inhibition was half-maximal at 14 nM (IC50).
In the case of `Cc1ncc(C)n2nc(/C=C/c3nc(N4CCCN4C)nn3C)nc12` [Roche-Dataset for PDE10A, Compound 911] it was 747 nM; in that of `CC(C)(CO)NC(=O)c1ncccc1NC(=O)c1nc(C2CC2)cnc1Nc1cncnc1` [US8703768, 273], 0.31 nM.
Turning to `CNC(=O)c1cc(NC(C)=O)ccc1NC(=O)c1nc(C2CC2)cnc1Nc1cncnc1` [US8703768, 274], the half-maximal inhibitory concentration (IC50) amounted to 0.38 nM.
`O=C(NCCCN1CCCC1=O)c1nc(C2CC2)cnc1Nc1cncnc1` [Roche-Dataset for PDE10A, Compound 795]: it took 1110 nM to reach half-maximal inhibition (IC50).
Compound `Cn1ncc(C(=O)N2CCC2)c1C(=O)Nc1ccn(Cc2ccccc2)n1` [Roche-Dataset for PDE10A, Compound 950] gave an IC50 of 116 nM.
`Cc1cccc(CCc2nc(-c3ccccc3)cn2C)n1` [Roche-Dataset for PDE10A, Compound 328]: inhibition was half-maximal at 9270 nM (IC50).
As for `Cn1cc(-c2ccccc2)nc1CCNC(=O)c1nc(C2CC2)cnc1Nc1cncnc1` [Roche-Dataset for PDE10A, Compound 36], the 50% inhibitory concentration (IC50) was 16 nM.
Consider `CC(C)Oc1cccc(NC(=O)c2nc(C3CC3)cnc2Nc2cncnc2)n1` [Roche-Dataset for PDE10A, Compound 917], for which half-maximal inhibition (IC50) was put at 24 nM.
As to `Cc1ccc(Nc2cncnc2)c(C(=O)Nc2ccn([C@]34C[C@H]5C[C@H](C[C@H](C5)C3)C4)n2)n1` [Roche-Dataset for PDE10A, Compound 610], the IC50 worked out at 52 nM.
For `Cn1ncc(CO)c1C(=O)Nc1ccn2nc(-c3ccccc3)nc2c1` [Roche-Dataset for PDE10A, Compound 287], the IC50 worked out at 52 nM. That is a double-digit nanomolar value.
For `Cc1cc(C)c2c(NC(=O)c3c(C(=O)N4CCC4)cnn3C)nn(C)c2n1` [Roche-Dataset for PDE10A, Compound 1160], inhibition was half-maximal at 4290 nM (IC50).
In the case of `O=C(NCCN1CCCc2ccccc21)c1nc(C2CC2)cnc1Nc1cncnc1` [Roche-Dataset for PDE10A, Compound 449], half-maximal inhibition (IC50) required 46 nM.
For the compound `CNc1nc2cc(NC(=O)c3c(C(=O)N4CCC4)cnn3C)ccn2n1` [Roche-Dataset for PDE10A, Compound 704], 7.7 nM corresponded to half-maximal inhibition (IC50). This IC50 lies about 6-fold lower than the previous one.
For the compound `COC[C@H]1CCCN1c1nc(CCc2nc3c(C)ncc(C)n3n2)n(Cc2ccc(OC)cc2)n1` [Roche-Dataset for PDE10A, Compound 38], the half-inhibitory concentration (IC50) stood at 15 nM.
With `CCN(C)C(=O)c1cnn(C)c1C(=O)N[C@@H]1CCn2cc(-c3ccccc3)nc2C1` [Roche-Dataset for PDE10A, Compound 242], the IC50 is 15 nM.
Regarding `O=C(Nc1ccn(CCF)n1)c1nc(C2CC2)ccc1Nc1cncnc1` [Roche-Dataset for PDE10A, Compound 698], the IC50 was 9.84 nM.
Take `CNC(=O)c1cc2[nH]c(-c3ccccc3)nc2cc1NC(=O)c1cc[nH]n1` [Roche-Dataset for PDE10A, Compound 619]: the half-inhibitory concentration (IC50) worked out at 390 nM.
Next, `CC(C)c1nnc2c(C(=O)NCCc3nc(-c4ccccc4)cn3C)cccn12` [Roche-Dataset for PDE10A, Compound 201]: 25 nM.
Next, `Cn1ncc(C(=O)N2CCC2)c1C(=O)Nc1ccc2sc(-c3ccccc3)nc2c1` [Roche-Dataset for PDE10A, Compound 174]: 0.77 nM.
In the case of `Cn1ncc(C(=O)O)c1C(=O)Nc1ccn2nc(-c3cccnc3F)nc2c1` [Roche-Dataset for PDE10A, Compound 458], half-maximal inhibition (IC50) was put at 66 nM.
As for `CCOC(=O)c1cnn(C)c1C(=O)Nc1ccn2nc(N(C)CC)nc2c1` [Roche-Dataset for PDE10A, Compound 502], the half-inhibitory concentration (IC50) was found to be 359 nM.
On to `Cn1nc(N2CCCC2)nc1CCc1nc2c(C#N)cccn2n1` [Roche-Dataset for PDE10A, Compound 342], for which the 50% inhibitory concentration (IC50) was found to be 467 nM.
